What was measured:
Homo sapiens [1] = assay: AUC (0 to t) in HIV-1 infected children at 12 mg/kg, po administered once daily by HPLC; format: ADME, organism-based, Plasma; parameters: dose 12 mg/kg, route oral; settings: in vivo
[2] = Cmax in HIV-1 infected children at 12 mg/kg, po administered once daily by HPLC; format: ADME, organism-based; parameters: dose 12 mg/kg, route oral; settings: human, in vivo
[3] = Apparent oral clearance in HIV-1 infected children at 13.3 mg/kg, po administered once daily by HPLC; format: ADME, organism-based; parameters: dose 13.3 mg/kg, route oral; settings: human, in vivo
[4] = Apparent oral clearance in HIV-1 infected children at 12 mg/kg, po administered once daily by HPLC; format: ADME, organism-based; parameters: dose 12 mg/kg, route oral; settings: human, in vivo
[5] = Cmax in HIV-1 infected children at 10 to 15 mg/kg, po administered once daily by HPLC; format: ADME, organism-based; parameters: dose 10-15 mg/kg, route oral; settings: human, in vivo
Homo sapiens [6] = assay: AUC (0 to t) in HIV-1 infected children at 10 to 15 mg/kg, po administered once daily by HPLC; format: ADME, organism-based, Plasma; parameters: dose 10-15 mg/kg, route oral; settings: in vivo
[7] = Cmax in HIV-1 infected children at 14.4 mg/kg, po administered once daily by HPLC; format: ADME, organism-based; parameters: dose 14.4 mg/kg, route oral; settings: human, in vivo
[8] = Apparent oral clearance in HIV-1 infected children at 14.4 mg/kg, po administered once daily by HPLC; format: ADME, organism-based; parameters: dose 14.4 mg/kg, route oral; settings: human, in vivo
[9] = test system: Human immunodeficiency virus 1; assay: Antiviral activity against HIV1 infected in children assessed as decrease in viral burden at 14.4 mg/kg once daily measured after 3 months; format: functional
Homo sapiens [10] = assay: AUC (0 to t) in HIV-1 infected children at 14.4 mg/kg, po administered once daily by HPLC; format: ADME, organism-based, Plasma; parameters: dose 14.4 mg/kg, route oral; settings: in vivo

O=C1Nc2ccc(Cl)cc2[C@@](C#CC2CC2)(C(F)(F)F)O1 [EFAVIRENZ]
AUC (Homo sapiens [1]): 60000 ng·h/mL
Cmax [2]: 4090 ng/mL
CL/F [3]: 5 mL/min/kg
CL/F [4]: 3.17 mL/min/kg
Cmax [5]: 5520 ng/mL
AUC (Homo sapiens [6]): 63600 ng·h/mL
Cmax [7]: 3710 ng/mL
CL/F [8]: 3.5 mL/min/kg
fold change (FC) [9]: 2.5
AUC (Homo sapiens [10]): 65200 ng·h/mL

— ChEMBL document CHEMBL1671668, “Is the recommended dose of efavirenz optimal in young West African human immunodeficiency virus-infected children?” (Antimicrob Agents Chemother, 2009)
